In the NIST ThermoML archive (doi:10.1016/j.tca.2015.06.017):

Assay: xn = mol fraction of the nth substance listed
Conditions: Liquid, Vibrating tube method

CC(C)CCl [1-chloro-2-methylpropane] + CCCCCCC
mass density [kg/m3]
Conditions | 313.15 K | 323.15 K
100 kPa, x2 = 0.0531 | – | 828.79
100 kPa, x2 = 0.1023 | – | 816.48
100 kPa, x2 = 0.2009 | – | 793.26
100 kPa, x2 = 0.3009 | – | 771.57
100 kPa, x2 = 0.3981 | – | 752.04
100 kPa, x2 = 0.4986 | – | 733.39
100 kPa, x2 = 0.5998 | – | 715.95
100 kPa, x2 = 0.7038 | – | 699.34
100 kPa, x2 = 0.7993 | – | 685.15
100 kPa, x2 = 0.8995 | – | 671.24
100 kPa, x2 = 0.9507 | – | 664.49
2000 kPa, x2 = 0.0531 | – | 831.42
2000 kPa, x2 = 0.1023 | – | 819.08
2000 kPa, x2 = 0.2009 | – | 795.85
2000 kPa, x2 = 0.3009 | – | 774.11
2000 kPa, x2 = 0.3981 | – | 754.54
2000 kPa, x2 = 0.4986 | – | 735.78
2000 kPa, x2 = 0.5998 | – | 718.28
2000 kPa, x2 = 0.7038 | – | 701.64
2000 kPa, x2 = 0.7993 | – | 687.35
2000 kPa, x2 = 0.8995 | – | 673.46
2000 kPa, x2 = 0.9507 | – | 666.75
5000 kPa, x2 = 0.0531 | – | 835.4
5000 kPa, x2 = 0.1023 | – | 823.02
5000 kPa, x2 = 0.2009 | – | 799.77
5000 kPa, x2 = 0.3009 | – | 777.97
5000 kPa, x2 = 0.3981 | – | 758.35
5000 kPa, x2 = 0.4986 | – | 739.53
5000 kPa, x2 = 0.5998 | – | 721.98
5000 kPa, x2 = 0.7038 | – | 705.28
5000 kPa, x2 = 0.7993 | – | 690.97
5000 kPa, x2 = 0.8995 | – | 677.02
5000 kPa, x2 = 0.9507 | – | 670.29
7000 kPa, x2 = 0.0531 | – | 838.13
7000 kPa, x2 = 0.1023 | – | 825.7
7000 kPa, x2 = 0.2009 | – | 802.4
7000 kPa, x2 = 0.3009 | – | 780.57
7000 kPa, x2 = 0.3981 | – | 760.9
7000 kPa, x2 = 0.4986 | – | 742.03
7000 kPa, x2 = 0.5998 | – | 724.42
7000 kPa, x2 = 0.7038 | – | 707.68
7000 kPa, x2 = 0.7993 | – | 693.36
7000 kPa, x2 = 0.8995 | – | 679.35
7000 kPa, x2 = 0.9507 | – | 672.58
10000 kPa, x2 = 0.0531 | – | 841.75
10000 kPa, x2 = 0.1023 | – | 829.31
10000 kPa, x2 = 0.2009 | – | 805.94
10000 kPa, x2 = 0.3009 | – | 784.05
10000 kPa, x2 = 0.3981 | – | 764.32
10000 kPa, x2 = 0.4986 | – | 745.38
10000 kPa, x2 = 0.5998 | – | 727.75
10000 kPa, x2 = 0.7038 | – | 710.93
10000 kPa, x2 = 0.7993 | – | 696.57
10000 kPa, x2 = 0.8995 | – | 682.48
10000 kPa, x2 = 0.9507 | – | 675.7
20000 kPa, x2 = 0.0531 | – | 853.08
20000 kPa, x2 = 0.1023 | – | 840.6
20000 kPa, x2 = 0.2009 | – | 817.1
20000 kPa, x2 = 0.3009 | – | 794.98
20000 kPa, x2 = 0.3981 | – | 775.23
20000 kPa, x2 = 0.4986 | 764.52 | 755.93
20000 kPa, x2 = 0.5998 | 746.45 | 738.09
20000 kPa, x2 = 0.7038 | 729.18 | 721.08
20000 kPa, x2 = 0.7993 | 714.39 | 706.61
20000 kPa, x2 = 0.8995 | 699.99 | 692.36
20000 kPa, x2 = 0.9507 | 692.96 | 685.54
30000 kPa, x2 = 0.0531 | 872.66 | 863.29
30000 kPa, x2 = 0.1023 | 859.97 | 850.64
30000 kPa, x2 = 0.2009 | 835.81 | 826.96
30000 kPa, x2 = 0.3009 | 813.29 | 804.68
30000 kPa, x2 = 0.3981 | 792.99 | 784.58
30000 kPa, x2 = 0.4986 | 773.45 | 765.27
30000 kPa, x2 = 0.5998 | 755.17 | 747.25
30000 kPa, x2 = 0.7038 | 737.72 | 730.1
30000 kPa, x2 = 0.7993 | 722.79 | 715.4
30000 kPa, x2 = 0.8995 | 708.23 | 700.96
30000 kPa, x2 = 0.9507 | 701.14 | 694.07
40000 kPa, x2 = 0.0531 | 881.46 | 872.52
40000 kPa, x2 = 0.1023 | 868.66 | 859.81
40000 kPa, x2 = 0.2009 | 844.37 | 835.84
40000 kPa, x2 = 0.3009 | 821.69 | 813.46
40000 kPa, x2 = 0.3981 | 801.27 | 793.25
40000 kPa, x2 = 0.4986 | 781.56 | 773.87
40000 kPa, x2 = 0.5998 | 763.14 | 755.68
40000 kPa, x2 = 0.7038 | 745.56 | 738.29
40000 kPa, x2 = 0.7993 | 730.5 | 723.4
40000 kPa, x2 = 0.8995 | 715.76 | 708.85
40000 kPa, x2 = 0.9507 | 708.64 | 701.87
50000 kPa, x2 = 0.0531 | 889.63 | 881.03
50000 kPa, x2 = 0.1023 | 876.7 | 868.25
50000 kPa, x2 = 0.2009 | 852.23 | 844.11
50000 kPa, x2 = 0.3009 | 829.5 | 821.56
50000 kPa, x2 = 0.3981 | 808.88 | 801.14
50000 kPa, x2 = 0.4986 | 789.11 | 781.63
50000 kPa, x2 = 0.5998 | 770.57 | 763.29
50000 kPa, x2 = 0.7038 | 752.8 | 745.73
50000 kPa, x2 = 0.7993 | 737.67 | 730.8
50000 kPa, x2 = 0.8995 | 722.82 | 716.06
50000 kPa, x2 = 0.9507 | 715.59 | 709.05
60000 kPa, x2 = 0.0531 | 897.18 | 888.87
60000 kPa, x2 = 0.1023 | 884.27 | 876.05
60000 kPa, x2 = 0.2009 | 859.72 | 851.78
60000 kPa, x2 = 0.3009 | 836.81 | 829.15
60000 kPa, x2 = 0.3981 | 815.99 | 808.64
60000 kPa, x2 = 0.4986 | 796.1 | 788.91
60000 kPa, x2 = 0.5998 | 777.45 | 770.47
60000 kPa, x2 = 0.7038 | 759.57 | 752.78
60000 kPa, x2 = 0.7993 | 744.29 | 737.68
60000 kPa, x2 = 0.8995 | 729.33 | 722.83
60000 kPa, x2 = 0.9507 | 722.04 | 715.76
65000 kPa, x2 = 0.0531 | 900.74 | 892.62
65000 kPa, x2 = 0.1023 | 887.8 | 879.77
65000 kPa, x2 = 0.2009 | 863.12 | 855.45
65000 kPa, x2 = 0.3009 | 840.18 | 832.75
65000 kPa, x2 = 0.3981 | 819.3 | 812.18
65000 kPa, x2 = 0.4986 | 799.37 | 792.37
65000 kPa, x2 = 0.5998 | 780.62 | 773.88
65000 kPa, x2 = 0.7038 | 762.72 | 756.14
65000 kPa, x2 = 0.7993 | 747.34 | 741.15
65000 kPa, x2 = 0.8995 | 732.38 | 726.04
65000 kPa, x2 = 0.9507 | 725.02 | 718.95
